# Data from patent publication US8820316B2, “Drug delivery apparatus” (Respironics Respiratory Drug Delivery (UK) Ltd, priority 2000, dated 2014).
# B1: rhDNase: Pulmozyme (recombinant, human DNase), mucoactive drug for cystic fibrosis lung disease (protein, UniProt P24855 23-282, looked up)
# Deoxyribonuclease-1: LKIAAFNIQTFGETKMSNATLVSYIVQILSRYDIALVQEVRDSHLTAVGKLLDNLNQDAPDTYHYVVSEPLGRNSYKERYLFVYRPDQVSAVDSYYYDDGCEPCGNDTFNREPAIVRFFSRFTEVREFAIVPLHAAPGDAVAEIDALYDVYLDVQEKWGLEDVMLMGDFNAGCSYVRPSQWSSIRLWTSPTFQWLIPDSADTTATPTHCAYDRIVVAGMLLRGAVVPDSALPFNFQAAYGLSDQLAQAISDHYPVEVMLK
# modifications: dornase alfa
# Legend:
# [1] = Budesonide study in 125 children with asthma using the system of the invention, asthma symptom score; type: in vivo; conditions: Improved Invention System, 200/50 μg; for daytime asthma symptom score, Baseline at entry / daytime asthma symptom score, End of Study: visual analogue range 0-3
# Procedure: A study in 125 children with asthma using the system disclosed in this patent delivered three different regimes of a short duration (2-12 weeks) high delivered daily dose 200 μg followed by a long duration (12-22 weeks) low daily dose delivered dose 50 μg. Their treatment compliance was monitored electronically and their asthma symptoms by the parents using a visual analogue score. The treatment compliance over the study was 80/90% and the asthma scores reduced from a baseline of 1.23/1.27 to 0.23/0.43.
# [2] = Budesonide study in 481 children with asthma using conventional nebulizers, asthma symptom score; type: in vivo; conditions: Conventional Nebuliser; for daytime asthma symptom score, End of Study: 12 weeks; for daytime asthma symptom score, End of Study / daytime asthma symptom score, Baseline at entry: visual analogue range 0-3
# Procedure: The study in 481 children with asthma using conventional nebulizers delivered five different regimes. Nominal nebulizer doses were in the range 250/1000 μg daily and placebo over a 12 week period. Their asthma symptoms by the parents using a visual analogue scores, the asthma scores reduced from 1.21/1.33 to 0.87/0.93.
# [3] = Sputum tobramycin concentration, conventional nebulizer versus high compliance system; type: in vivo, patients; conditions: human, inhaled
# Procedure: To compare the performance of a conventional nebulizer and a high compliance system according to this invention using Tobramycin 8 patients received either 300 mg/5 ml via conventional nebulizer or 30 mg delivered dose via the high compliance system. The mean sputum tobramycin concentrations at 2 hours were 128 μg/g for the conventional nebulizer and 98 μg/g for the high compliance system. This study may indicate that an even lower dose may be acceptable to achieve the MIC level when delivered with a high compliance system such as disclosed in this invention, in the range 5-30 mg Tobramycin.
# [4] = tested on: susceptible bacteria in the endobronchial space; conditions: 200-400 mg aminoglycoside in about 5 ml, 0.225% NaCl, pH 5.5-6.5, aerosolised (WO 96/12471); cited from earlier work
# [5] = tested on: Pseudomonas aeriginosa; conditions: typically required, for 90% of organisms; to be maintained for 120 minutes; cited from earlier work
# [6] = rhDNase response (FEV1) in adult CF patients who previously failed to respond; type: in vivo
# Source text: Mean change in FEV1 was 11.51%.
# [7] = when starting rhDNase therapy; cited from earlier work
molecule,measurement,setting,value
CCCC1O[C@@H]2C[C@H]3[C@@H]4CCC5=CC(=O)C=C[C@]5(C)[C@H]4[C@@H](O)C[C@]3(C)[C@]2(C(=O)CO)O1 (stereo partly shown) [Budesonide],"daytime asthma symptom score, Change",[1]; 2/22 weeks,−1
same,"daytime asthma symptom score, Baseline at entry",[1]; 2/22 weeks,1.23
same,"daytime asthma symptom score, End of Study",[1]; 2/22 weeks,0.23
same,"daytime asthma symptom score, Change",[1]; 6/18 weeks,−0.83
same,"daytime asthma symptom score, Baseline at entry",[1]; 6/18 weeks,1.26
same,"daytime asthma symptom score, End of Study",[1]; 6/18 weeks,0.43
same,"daytime asthma symptom score, Change",[1]; 12/12 weeks,−0.91
same,"daytime asthma symptom score, Baseline at entry",[1]; 12/12 weeks,1.27
same,"daytime asthma symptom score, End of Study",[1]; 12/12 weeks,0.36
same,"daytime asthma symptom score, Change",[2]; 250 μg once daily,−0.28
same,"daytime asthma symptom score, End of Study",[2]; 250 μg once daily,0.93
same,"daytime asthma symptom score, Baseline at entry",[2]; 250 μg once daily,1.21
same,"daytime asthma symptom score, Change",[2]; 250 μg twice daily,−0.4
same,"daytime asthma symptom score, End of Study",[2]; 250 μg twice daily,0.91
same,"daytime asthma symptom score, Baseline at entry",[2]; 250 μg twice daily,1.31
same,"daytime asthma symptom score, Change",[2]; 500 μg twice daily,−0.46
same,"daytime asthma symptom score, End of Study",[2]; 500 μg twice daily,0.87
same,"daytime asthma symptom score, Baseline at entry",[2]; 500 μg twice daily,1.33
same,"daytime asthma symptom score, Change",[2]; 1000 μg once daily,−0.37
same,"daytime asthma symptom score, End of Study",[2]; 1000 μg once daily,0.91
same,"daytime asthma symptom score, Baseline at entry",[2]; 1000 μg once daily,1.28
NC[C@H]1O[C@H](O[C@H]2[C@H](O)[C@@H](O[C@H]3O[C@H](CO)[C@@H](O)[C@H](N)[C@H]3O)[C@H](N)C[C@@H]2N)[C@H](N)C[C@@H]1O [Tobramycin],concentration at 2 h,[3]; 30 mg delivered dose via the high compliance system,98000 ng/g
same,concentration at 2 h,[3]; 300 mg/5 ml via conventional nebulizer,128000 ng/g
same,suppresses and inhibits susceptible bacteria,[4],at least 95%
same,MIC level,[5],> 16 µg/mL
B1,Mean change in FEV1,"[6]; 10 days, 0.25 ml/0.25 mg of the formulation, high compliance delivery system",11.51%
same,"mean response to therapy, change in FEV1",[6]; previous rhDNase therapy with conventional nebulizer devices,4.17%
same,patients showing a greater than 10% change in FEV1 over baseline,[7],Approximately 38%
